Test results reported in PubChem BioAssay AID1259411 (Chemical Carcinogenesis Research Information System (CCRIS), 2018).
Activity calls are given as the source filed them. How the calls were made is not given here.

System: rodent carcinogenicity bioassays, tumor incidence
Assay: CCRIS carcinogenicity studies
Method in brief: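 Archive of carcinogenicity, mutagenicity, tumor promotion and tumor inhibition results drawn from journals, NCI reports and other sources, expert-reviewed; covers 1985-2011 and is no longer updated.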

In the case of `C=C1C/C(=C/C)C(=O)O[C@@H]2CCN3CC=C(COC(=O)[C@@]1(O)CO)[C@H]23`, the carcinogen call (Species: MOUSE, Strain/Sex: B6C3F1/FEMALE, Route: GAVAGE, Dose: 0, 3 MG/KG IN 0.1 M PHOSPHATE BUFFER 5 D/WK FOR 105 WK (STUDY DURATION: 105 WK), Tumor Site: Type of Lesion: LUNG (ALVEOLAR/BRONCHIOLAR): ADENOMA, ADENOMA OR CARCINOMA) was “active; positive”, the carcinogen call (Species: MOUSE, Strain/Sex: B6C3F1/MALE, Route: GAVAGE, Dose: 0, 0.1, 0.3, 1, 3 MG/KG IN 0.1 M PHOSPHATE BUFFER 5 D/WK FOR 105 WK (STUDY DURATION: 105 WK), Dose: 0, 0.1, 0.3, 1, 3 MG/KG IN 0.1 M PHOSPHATE BUFFER 5 D/WK FOR 105 WK (STUDY DURATION: 105 WK), Tumor Site: Type of Lesion: LIVER: HEMANGIOSARCOMA) was “active; positive” and the carcinogen call (Species: RAT, Strain/Sex: F344/FEMALE, Route: GAVAGE, Dose: 0, 0.01, 0.033, 0.1, 0.33 MG/KG IN 0.1 M PHOSPHATE BUFFER 5 D/WK FOR 105 WK (STUDY DURATION: 105 WK), Dose: 0, 0.01, 0.033, 0.1, 0.33 MG/KG IN 0.1 M PHOSPHATE BUFFER 5 D/WK FOR 105 WK (STUDY DURATION: 105 WK)) was “inactive; negative”. For the same compound, the carcinogen call (Species: RAT, Strain/Sex: F344/FEMALE, Route: GAVAGE, Dose: 0, 1 MG/KG IN 0.1 M PHOSPHATE BUFFER 5 D/WK FOR 97 WK (STUDY DURATION: 97 WK), Tumor Site: Type of Lesion: LIVER: HEMANGIOSARCOMA, HEPATOCELLULAR ADENOMA, ADENOMA OR CARCINOMA, HEMATOPOIETIC SYSTEM: MONONUCLEAR CELL LEUKEMIA) was “active; positive” and the carcinogen call (Species: RAT, Strain/Sex: F344/MALE, Route: GAVAGE, Dose: 0, 1 MG/KG IN 0.1 M PHOSPHATE BUFFER 5 D/WK FOR 72 WK (STUDY DURATION: 72 WK), Tumor Site: Type of Lesion: LIVER: HEMANGIOSARCOMA, HEPATOCELLULAR ADENOMA, HEMATOPOIETIC SYSTEM: MONONUCLEAR CELL LEUKEMIA) was “active; positive”.

With `CN(C)C(=O)Nc1ccc(Cl)cc1` the carcinogen call (Species: MOUSE, Strain/Sex: B6C3F1/FEMALE, Route: ORAL, Dose: 0, 5000, 10000 PPM IN DIET FOR 103 WK (STUDY DURATION: 107 WK), Dose: 0, 5000, 10000 PPM IN DIET FOR 103 WK (STUDY DURATION: 107 WK)) was “inactive; negative”, the carcinogen call (Species: MOUSE, Strain/Sex: B6C3F1/MALE, Route: ORAL, Dose: 0, 5000, 10000 PPM IN DIET FOR 103 WK (STUDY DURATION: 107 WK), Dose: 0, 5000, 10000 PPM IN DIET FOR 103 WK (STUDY DURATION: 107 WK)) was “inactive; negative” and the carcinogen call (Species: RAT, Strain/Sex: F344/FEMALE, Route: ORAL, Dose: 0, 750, 1500 PPM IN DIET FOR 103 WK (STUDY DURATION: 106 WK), Dose: 0, 750, 1500 PPM IN DIET FOR 103 WK (STUDY DURATION: 106 WK)) was “inactive; negative”. For the same compound, the carcinogen call (Species: RAT, Strain/Sex: F344/MALE, Route: ORAL, Dose: 0, 750, 1500 PPM IN DIET FOR 103 WK (STUDY DURATION: 106 WK), Dose: 0, 750, 1500 PPM IN DIET FOR 103 WK (STUDY DURATION: 106 WK), Tumor Site: Type of Lesion: LIVER: NEOPLASTIC NODULE, NEOPLASTIC NODULE OR CARCINOMA, KIDNEY: TUBULAR CELL ADENOMA, TUBULAR CELL ADENOCARCINOMA) was “active; positive”.

With `ClC1=CC(c2cc(Cl)ccc2Cl)=C(Cl)[C@H]2O[C@@H]12` the carcinogen call (Species: MOUSE, Strain/Sex: STRAIN-A/FEMALE, Route: INTRAPERITONEAL, Dose: 0, 0.1, 0.2 UMOL/UL OF DMSO 5, 10 AND 20 µL GIVEN ON DAYS 4, 8 AND 15 AFTER BIRTH, RESPECTIVELY (STUDY DURATION: 28 WK), Dose: 0, 0.1, 0.2 UMOL/UL OF DMSO 5, 10 AND 20 µL GIVEN ON DAYS 4, 8 AND 15 AFTER BIRTH, RESPECTIVELY (STUDY DURATION: 28 WK)) was “inactive; negative” and the carcinogen call (Species: MOUSE, Strain/Sex: STRAIN-A/MALE, Route: INTRAPERITONEAL, Dose: 0, 0.1, 0.2 UMOL/UL OF DMSO 5, 10 AND 20 µL GIVEN ON DAYS 4, 8 AND 15 AFTER BIRTH, RESPECTIVELY (STUDY DURATION: 28 WK), Dose: 0, 0.1, 0.2 UMOL/UL OF DMSO 5, 10 AND 20 µL GIVEN ON DAYS 4, 8 AND 15 AFTER BIRTH, RESPECTIVELY (STUDY DURATION: 28 WK)) was “inactive; negative”.

`O=C(O)COc1ccc(Cl)cc1Cl` (tested in a mixture with another compound) was tested, and the carcinogen call (Species: MOUSE, Strain/Sex: B6C3F1/FEMALE, Route: DERMAL, Dose: 0, 100, 200 MG/KG BW IN ETHANOL 5/WK FOR 104 WK (STUDY DURATION: 104 WK), Dose: 0, 100, 200 MG/KG BW IN ETHANOL 5/WK FOR 104 WK (STUDY DURATION: 104 WK), Tumor Site: Type of Lesion: LIVER: HEPATOCELLULAR ADENOMA, HEPATOCELLULAR CARCINOMA, HEPATOCELLULAR ADENOMA OR CARCINOMA OR HEPATOBLASTOMA) was “active; positive”, the carcinogen call (Species: MOUSE, Strain/Sex: B6C3F1/MALE, Route: DERMAL, Dose: 0, 100, 200 MG/KG BW IN ETHANOL 5/WK FOR 104 WK (STUDY DURATION: 104 WK), Dose: 0, 100, 200 MG/KG BW IN ETHANOL 5/WK FOR 104 WK (STUDY DURATION: 104 WK), Tumor Site: Type of Lesion: KIDNEY: RENAL TUBULE ADENOMA, RENAL TUBULE ADENOMA OR CARCINOMA, LIVER: HEPATOCELLULAR ADENOMA, HEPATOCELLULAR CARCINOMA) was “active; positive” and the carcinogen call (Species: RAT, Strain/Sex: F344/FEMALE, Route: DERMAL, Dose: 0, 50, 100 MG/KG BW IN ETHANOL 5/WK FOR 104 WK (STUDY DURATION: 104 WK), Dose: 0, 50, 100 MG/KG BW IN ETHANOL 5/WK FOR 104 WK (STUDY DURATION: 104 WK), Tumor Site: Type of Lesion: KIDNEY: RENAL TUBULE ADENOMA OR CARCINOMA) was “equivocal”. The carcinogen call (Species: RAT, Strain/Sex: F344/MALE, Route: DERMAL, Dose: 0, 50, 100 MG/KG BW IN ETHANOL 5/WK FOR 104 WK (STUDY DURATION: 104 WK), Dose: 0, 50, 100 MG/KG BW IN ETHANOL 5/WK FOR 104 WK (STUDY DURATION: 104 WK)) was “inactive; negative”.

For `COP(=O)(NC(C)=O)SC` (stereo not drawn), the carcinogen call (Species: Mouse, Strain/Sex: CD-1/Female, Route: Oral, Dose: 0, 50, 250, 1000 ppm (0; 8; 42; 167 mg/kg/d) in feed for 104 wk, Dose: 0, 50, 250, 1000 ppm (0; 8; 42; 167 mg/kg/d) in feed for 104 wk, Tumor Site: Type of Lesion: Liver: Hepatocellular carcinoma and adenoma (highest dose only)) was “inactive; negative; purity = 92.7, 92.1%” and the carcinogen call (Species: Mouse, Strain/Sex: CD-1/Male, Route: Oral, Dose: 0, 50, 250, 1000 ppm (0; 7; 36; 146 mg/kg/d) in feed for 104 wk, Dose: 0, 50, 250, 1000 ppm (0; 7; 36; 146 mg/kg/d) in feed for 104 wk) was “inactive; negative; purity = 92.7, 92.1%”.

For `CC1CN(N=O)CC(C)N1` (stereo not drawn), the carcinogen call (Species: RAT, Strain/Sex: F344/FEMALE, Route: ORAL, Dose: 0, 100 MG/L IN DRINKING WATER 5 D/WK FOR 29 WK, STUDY DURATION: 40-50 WK, Dose: 0, 100 MG/L IN DRINKING WATER 5 D/WK FOR 29 WK, STUDY DURATION: 40-50 WK, Tumor Site: Type of Lesion: THYMUS GLAND: LYMPHOMA OR LEUKEMIA, MULTIPLE SITES: LYMPHOMA OR LEUKEMIA) was “active; positive”.

In the case of `CS(=O)(=O)OCCCNCCCOS(C)(=O)=O`, the carcinogen call (Species: MOUSE, Strain/Sex: B6C3F1/FEMALE, Route: INTRAPERITONEAL, Dose: 0, 20, 40 MG/KG 3/WK FOR 52 WK (STUDY DURATION: 52 WK), Dose: 0, 20, 40 MG/KG 3/WK FOR 52 WK (STUDY DURATION: 52 WK), Tumor Site: Type of Lesion: SUBCUTANEOUS TISSUE: SQUAMOUS CELL CARCINOMA, HEMATOPOIETIC SYSTEM: MALIGNANT LYMPHOMA) was “equivocal”, the carcinogen call (Species: MOUSE, Strain/Sex: B6C3F1/MALE, Route: INTRAPERITONEAL, Dose: 0, 20, 40 MG/KG 3/WK FOR 52 WK (STUDY DURATION: 52 WK), Dose: 0, 20, 40 MG/KG 3/WK FOR 52 WK (STUDY DURATION: 52 WK), Tumor Site: Type of Lesion: SUBCUTANEOUS TISSUE: SQUAMOUS CELL CARCINOMA, HEMATOPOIETIC SYSTEM: MALIGNANT LYMPHOMA) was “equivocal” and the carcinogen call (Species: RAT, Strain/Sex: SPRAGUE-DAWLEY/FEMALE, Route: INTRAPERITONEAL, Dose: 0, 12 MG/KG 3/WK FOR 52 WK, 24 MG/KG 3/WK FOR 34 WK, 48 MG/KG 3/WK FOR 27 WK (STUDY DURATION: 27-52 WK), Dose: 0, 12 MG/KG 3/WK FOR 52 WK, 24 MG/KG 3/WK FOR 34 WK, 48 MG/KG 3/WK FOR 27 WK (STUDY DURATION: 27-52 WK), Tumor Site: Type of Lesion: PERITONEUM: SARCOMA, FIBROMA OR FIBROSARCOMA) was “equivocal”. For the same compound, the carcinogen call (Species: RAT, Strain/Sex: SPRAGUE-DAWLEY/MALE, Route: INTRAPERITONEAL, Dose: 0, 12 MG/KG 3/WK FOR 52 WK, 24 MG/KG 3/WK FOR 34 WK, 48 MG/KG 3/WK FOR 23 WK (STUDY DURATION: 23-52 WK), Dose: 0, 12 MG/KG 3/WK FOR 52 WK, 24 MG/KG 3/WK FOR 34 WK, 48 MG/KG 3/WK FOR 23 WK (STUDY DURATION: 23-52 WK), Tumor Site: Type of Lesion: PERITONEUM: SARCOMA, FIBROMA OR FIBROSARCOMA) was “equivocal”.

`Cc1cc(-c2ccc(N/N=C3\C=Cc4c(S(=O)(=O)O)cc(S(=O)(=O)O)c(N)c4C3=O)c(C)c2)ccc1N/N=C1\C=Cc2c(S(=O)(=O)O)cc(S(=O)(=O)O)c(N)c2C1=O` was tested, and the carcinogen call (Species: RAT, Route: INTRAPERITONEAL, Tumor Site: Type of Lesion: LIVER) was “active; positive”.
